Here are results for three molecules from patent US10265329B2, “Altering steroid metabolism for treatment of steroid-dependent disease” (THE CLEVELAND CLINIC FOUNDATION, priority 2015, dated 2019).

Substitutions are numbered along the chain they refer to.

One experiment addresses T1, mutant AR (LNCaP) (Homo sapiens, UniProt P10275, T878A).
T1 construct: endogenous in cells; host or cells: LNCaP
T1 sequence (P10275 1-920 T878A): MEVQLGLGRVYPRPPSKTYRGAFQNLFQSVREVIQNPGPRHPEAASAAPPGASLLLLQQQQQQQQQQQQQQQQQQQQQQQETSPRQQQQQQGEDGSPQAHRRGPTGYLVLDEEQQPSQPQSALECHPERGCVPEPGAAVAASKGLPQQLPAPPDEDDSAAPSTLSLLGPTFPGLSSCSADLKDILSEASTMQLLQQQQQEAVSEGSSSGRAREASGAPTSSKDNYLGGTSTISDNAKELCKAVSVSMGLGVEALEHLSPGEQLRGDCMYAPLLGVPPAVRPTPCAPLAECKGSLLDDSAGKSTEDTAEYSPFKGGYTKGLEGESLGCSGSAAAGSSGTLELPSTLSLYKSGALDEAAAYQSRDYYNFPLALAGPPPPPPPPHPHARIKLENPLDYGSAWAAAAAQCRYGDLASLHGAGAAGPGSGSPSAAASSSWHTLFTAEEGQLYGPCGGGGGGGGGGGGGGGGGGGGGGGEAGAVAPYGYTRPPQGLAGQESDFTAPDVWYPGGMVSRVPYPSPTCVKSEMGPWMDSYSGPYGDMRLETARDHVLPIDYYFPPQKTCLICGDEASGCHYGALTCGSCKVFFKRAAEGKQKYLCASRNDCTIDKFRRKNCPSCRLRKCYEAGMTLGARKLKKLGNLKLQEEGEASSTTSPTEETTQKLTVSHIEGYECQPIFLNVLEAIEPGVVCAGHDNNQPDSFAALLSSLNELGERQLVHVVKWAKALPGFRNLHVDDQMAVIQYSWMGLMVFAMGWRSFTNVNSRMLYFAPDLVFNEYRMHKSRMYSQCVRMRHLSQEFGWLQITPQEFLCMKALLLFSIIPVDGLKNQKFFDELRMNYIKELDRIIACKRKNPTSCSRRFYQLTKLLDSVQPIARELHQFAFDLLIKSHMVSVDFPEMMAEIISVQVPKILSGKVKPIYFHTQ
Nature of the experiment: AR competition assay with [3H]-R1881 in LNCaP cells. The format is binding. Conditions: for affinity for T877A mutant AR: [3H]-R1881, 30 min. The protocol: (§1) Cells were cultured in serum-free medium for 48 h and then treated with [^3H]-R1881 and the indicated concentrations of D4A, Abi, enzalutamide, R1881 or bicalutamide for 30 min. Cells were washed with 1×PBS 4 times and 0.9% NaCl solution twice before lysis with RIPA buffer.
(§2) Cells were starved with phenol red-free and serum free-medium for at least 48 h and then treated with [^3H]-R1881 and the indicated concentrations of drugs for 30 min. Cells were washed thoroughly with PBS and then lysed with […].

In another experiment the target is T2, wild-type AR (LAPC4) (Homo sapiens, UniProt P10275).
T2 construct: endogenous in cells; host or cells: LAPC4
T2 sequence (P10275 1-920): T1 sequence (P10275 1-920 T878A) with A878T
Nature of the experiment: AR competition assay with [3H]-R1881 in LAPC4 cells. It counts as binding. The conditions noted are these: for affinity for wild-type AR: [3H]-R1881, 30 min. As to the method: as §1, §2

For `C[C@]12CCC(=O)C=C1CC[C@@H]1[C@@H]2CC[C@]2(C)C(c3cccnc3)=CC[C@@H]12` [Compound D4A, 17-(3-Pyridyl)androsta-4,16-dien-3-one], the IC50 at mutant AR (LNCaP) (competition with 0.1 nM [3H]-R1881, read-out: IC50, affinity for mutant AR) came to 5.3 nM; on wild-type AR (LAPC4) (competition with 0.1 nM [3H]-R1881, read-out: IC50, affinity for wild-type AR) it was 7.9 nM.

As to `C[C@]12CCC(=O)C[C@@H]1CC[C@@H]1[C@@H]2CC[C@]2(C)C(c3cccnc3)=CC[C@@H]12` [Compound 5α-Abi, 17-(3-pyridyl)-5α-androsta-16-ene-3-one], the “affinity for T877A mutant AR” value on mutant AR (LNCaP) is recorded as “comparable to that of D4A”. Also, at wild-type AR (LAPC4), the “affinity for wild-type AR” value is on record as “comparable to that of D4A”.

Turning to `C[C@]12CC[C@@H](O)C[C@@H]1CC[C@@H]1[C@@H]2CC[C@]2(C)C(c3cccnc3)=CC[C@@H]12` [Compound 3α-OH-5α-Abi, 17-(3-pyridyl)-5α-androsta-16-ene-3α-ol], the “affinity for T877A mutant AR” value at mutant AR (LNCaP) was “lower”. For the same molecule, the “affinity for wild-type AR” value on wild-type AR (LAPC4) was “lower”.
